Laboratory results reported in patent US20140271831A1, “RACECADOTRIL LIQUID COMPOSITIONS” (McNeil-PPC, Inc., priority 2013, published 2014).

Test: Racecadotril and degradation products over time in Acetate and Citrate at pH 3.6, 4.0, 4.5 (untitled table)
Assay type: physicochemical
Set-up: key to Impurity C / Impurity G: % peak area relative to the Racecadotril peak
Settings: for RAC: in % (unit assumed)
Experimental: • 1. Pipet 1 mL of Racecadotril solution into a 100 mL volumetric flask (V.F.) • 2. Dilute to volume with the same buffer used in the solution preparation. • 3. […] Parameters may be modified to optimize chromatography. • The assay of Racecadotril is determined by using the external standard injected. The degradation products levels are determined by % peak area relative to the Racecadotril peak. [table] [table] Mobil Phase A: Phosphate buffer, pH 2.5 (Buffer prep: dissolve 1 g of potassium dihydrogen phosphate in water, adjust to pH 2.5 with phosphoric acid, dilute to 1000 mL with water) Mobil Phase B: 100% Acetonitrile

Benz Alcohol (Acetate, pH 3.6, 1 week): 0.69% | Impurity C (Acetate, pH 3.6, 1 week): 0.93 | Impurity G (Acetate, pH 3.6, 1 week): 1.17 | Thiorphan (Acetate, pH 3.6, 1 week): 0% | RAC (Acetate, pH 3.6, 1 week): 97.21 | Benz Alcohol (Acetate, pH 3.6, 2 week): 1.4% | Impurity C (Acetate, pH 3.6, 2 week): 1.87 | Impurity G (Acetate, pH 3.6, 2 week): 1.74 | Thiorphan (Acetate, pH 3.6, 2 week): 0.11% | RAC (Acetate, pH 3.6, 2 week): 94.88 | Benz Alcohol (Acetate, pH 3.6, 3 week): 2.13% | Impurity C (Acetate, pH 3.6, 3 week): 2.78 | Impurity G (Acetate, pH 3.6, 3 week): 1.93 | Thiorphan (Acetate, pH 3.6, 3 week): 0.14% | RAC (Acetate, pH 3.6, 3 week): 93.01 | Benz Alcohol (Acetate, pH 3.6, 4 week): 2.84% | Impurity C (Acetate, pH 3.6, 4 week): 3.56 | Impurity G (Acetate, pH 3.6, 4 week): 3 | Thiorphan (Acetate, pH 3.6, 4 week): 0.3% | RAC (Acetate, pH 3.6, 4 week): 90.15 | Benz Alcohol (Acetate, pH 3.6, 6 week): 4.33% | Impurity C (Acetate, pH 3.6, 6 week): 5.17 | Impurity G (Acetate, pH 3.6, 6 week): 3.82 | Thiorphan (Acetate, pH 3.6, 6 week): 0.57% | RAC (Acetate, pH 3.6, 6 week): 85.75 | Benz Alcohol (Acetate, pH 3.6, 8 week): 5.78% | Impurity C (Acetate, pH 3.6, 8 week): 6.2 | Impurity G (Acetate, pH 3.6, 8 week): 5.28 | Thiorphan (Acetate, pH 3.6, 8 week): 1% | RAC (Acetate, pH 3.6, 8 week): 80.68 | Benz Alcohol (Acetate, pH 3.6, Initial): 0% | Impurity C (Acetate, pH 3.6, Initial): 0 | Impurity G (Acetate, pH 3.6, Initial): 0.07 | Thiorphan (Acetate, pH 3.6, Initial): 0% | RAC (Acetate, pH 3.6, Initial): 99.93 | Benz Alcohol (Acetate, pH 4.0, 1 week): 0.7% | Impurity C (Acetate, pH 4.0, 1 week): 0.93 | Impurity G (Acetate, pH 4.0, 1 week): 1.36 | Thiorphan (Acetate, pH 4.0, 1 week): 0% | RAC (Acetate, pH 4.0, 1 week): 97.01 | Benz Alcohol (Acetate, pH 4.0, 2 week): 1.39% | Impurity C (Acetate, pH 4.0, 2 week): 1.82 | Impurity G (Acetate, pH 4.0, 2 week): 1.7 | Thiorphan (Acetate, pH 4.0, 2 week): 0.7% | RAC (Acetate, pH 4.0, 2 week): 95.02 | Benz Alcohol (Acetate, pH 4.0, 3 week): 2.09% | Impurity C (Acetate, pH 4.0, 3 week): 2.83 | Impurity G (Acetate, pH 4.0, 3 week): 2.66 | Thiorphan (Acetate, pH 4.0, 3 week): 0.19% | RAC (Acetate, pH 4.0, 3 week): 92.23 | Benz Alcohol (Acetate, pH 4.0, 4 week): 2.84% | Impurity C (Acetate, pH 4.0, 4 week): 3.52 | Impurity G (Acetate, pH 4.0, 4 week): 3.62 | Thiorphan (Acetate, pH 4.0, 4 week): 0.38% | RAC (Acetate, pH 4.0, 4 week): 89.5 | Benz Alcohol (Acetate, pH 4.0, 6 week): 4.28% | Impurity C (Acetate, pH 4.0, 6 week): 5.16 | Impurity G (Acetate, pH 4.0, 6 week): 5.67 | Thiorphan (Acetate, pH 4.0, 6 week): 0.71% | RAC (Acetate, pH 4.0, 6 week): 83.98 | Benz Alcohol (Acetate, pH 4.0, 8 week): 5.37% | Impurity C (Acetate, pH 4.0, 8 week): 6.2 | Impurity G (Acetate, pH 4.0, 8 week): 8.46 | Thiorphan (Acetate, pH 4.0, 8 week): 1.19% | RAC (Acetate, pH 4.0, 8 week): 78.53 | Benz Alcohol (Acetate, pH 4.0, Initial): 0% | Impurity C (Acetate, pH 4.0, Initial): 0 | Impurity G (Acetate, pH 4.0, Initial): 0 | Thiorphan (Acetate, pH 4.0, Initial): 0% | RAC (Acetate, pH 4.0, Initial): 100 | Benz Alcohol (Acetate, pH 4.5, 1 week): 0.022% | Impurity C (Acetate, pH 4.5, 1 week): 0.21 | Impurity G (Acetate, pH 4.5, 1 week): 3.17 | Thiorphan (Acetate, pH 4.5, 1 week): 0.02% | RAC (Acetate, pH 4.5, 1 week): 96.33 | Benz Alcohol (Acetate, pH 4.5, 2 week): 0.4% | Impurity C (Acetate, pH 4.5, 2 week): 0.4 | Impurity G (Acetate, pH 4.5, 2 week): 6.5 | Thiorphan (Acetate, pH 4.5, 2 week): 0.04% | RAC (Acetate, pH 4.5, 2 week): 92.61 | Benz Alcohol (Acetate, pH 4.5, 3 week): 0.59% | Impurity C (Acetate, pH 4.5, 3 week): 0.58 | Impurity G (Acetate, pH 4.5, 3 week): 9.43 | Thiorphan (Acetate, pH 4.5, 3 week): 0.06% | RAC (Acetate, pH 4.5, 3 week): 89.29 | Benz Alcohol (Acetate, pH 4.5, 4 week): 0.79% | Impurity C (Acetate, pH 4.5, 4 week): 0.72 | Impurity G (Acetate, pH 4.5, 4 week): 11.84 | Thiorphan (Acetate, pH 4.5, 4 week): 0.11% | RAC (Acetate, pH 4.5, 4 week): 86.5 | Benz Alcohol (Acetate, pH 4.5, 6 week): 1.14% | Impurity C (Acetate, pH 4.5, 6 week): 1.04 | Impurity G (Acetate, pH 4.5, 6 week): 17.32 | Thiorphan (Acetate, pH 4.5, 6 week): 0.2% | RAC (Acetate, pH 4.5, 6 week): 80.25 | Benz Alcohol (Acetate, pH 4.5, 8 week): 1.51% | Impurity C (Acetate, pH 4.5, 8 week): 1.25 | Impurity G (Acetate, pH 4.5, 8 week): 21.73 | Thiorphan (Acetate, pH 4.5, 8 week): 0.36% | RAC (Acetate, pH 4.5, 8 week): 75.06 | Benz Alcohol (Acetate, pH 4.5, Initial): 0.02% | Impurity C (Acetate, pH 4.5, Initial): 0.02 | Impurity G (Acetate, pH 4.5, Initial): 0.21 | Thiorphan (Acetate, pH 4.5, Initial): 0.01% | RAC (Acetate, pH 4.5, Initial): 99.68 | Benz Alcohol (Citrate, pH 3.6, 1 week): 0.79% | Impurity C (Citrate, pH 3.6, 1 week): 0.98 | Impurity G (Citrate, pH 3.6, 1 week): 1.78 | Thiorphan (Citrate, pH 3.6, 1 week): 0% | RAC (Citrate, pH 3.6, 1 week): 96.45 | Benz Alcohol (Citrate, pH 3.6, 2 week): 1.72% | Impurity C (Citrate, pH 3.6, 2 week): 2.3 | Impurity G (Citrate, pH 3.6, 2 week): 3.81 | Thiorphan (Citrate, pH 3.6, 2 week): 0.13% | RAC (Citrate, pH 3.6, 2 week): 92.01 | Benz Alcohol (Citrate, pH 3.6, 3 week): 2.59% | Impurity C (Citrate, pH 3.6, 3 week): 3.36 | Impurity G (Citrate, pH 3.6, 3 week): 5.52 | Thiorphan (Citrate, pH 3.6, 3 week): 0.31% | RAC (Citrate, pH 3.6, 3 week): 88.22 | Benz Alcohol (Citrate, pH 3.6, 4 week): 3.38% | Impurity C (Citrate, pH 3.6, 4 week): 4.23 | Impurity G (Citrate, pH 3.6, 4 week): 7.38 | Thiorphan (Citrate, pH 3.6, 4 week): 0.47% | RAC (Citrate, pH 3.6, 4 week): 84.51 | Benz Alcohol (Citrate, pH 3.6, 6 week): 5.09% | Impurity C (Citrate, pH 3.6, 6 week): 6.13 | Impurity G (Citrate, pH 3.6, 6 week): 9.72 | Thiorphan (Citrate, pH 3.6, 6 week): 1.11% | RAC (Citrate, pH 3.6, 6 week): 77.91 | Benz Alcohol (Citrate, pH 3.6, 8 week): 6.64% | Impurity C (Citrate, pH 3.6, 8 week): 7.54 | Impurity G (Citrate, pH 3.6, 8 week): 12.47 | Thiorphan (Citrate, pH 3.6, 8 week): 1.8% | RAC (Citrate, pH 3.6, 8 week): 71.51 | Benz Alcohol (Citrate, pH 3.6, Initial): 0% | Impurity C (Citrate, pH 3.6, Initial): 0 | Impurity G (Citrate, pH 3.6, Initial): 0.09 | Thiorphan (Citrate, pH 3.6, Initial): 0% | RAC (Citrate, pH 3.6, Initial): 99.91 | Benz Alcohol (Citrate, pH 4.0, 1 week): 0.89% | Impurity C (Citrate, pH 4.0, 1 week): 1.23 | Impurity G (Citrate, pH 4.0, 1 week): 1.95 | Thiorphan (Citrate, pH 4.0, 1 week): 0% | RAC (Citrate, pH 4.0, 1 week): 95.93 | Benz Alcohol (Citrate, pH 4.0, 2 week): 1.41% | Impurity C (Citrate, pH 4.0, 2 week): 1.82 | Impurity G (Citrate, pH 4.0, 2 week): 3.47 | Thiorphan (Citrate, pH 4.0, 2 week): 0.11% | RAC (Citrate, pH 4.0, 2 week): 93.19 | Benz Alcohol (Citrate, pH 4.0, 3 week): 2.36% | Impurity C (Citrate, pH 4.0, 3 week): 2.82 | Impurity G (Citrate, pH 4.0, 3 week): 4.79 | Thiorphan (Citrate, pH 4.0, 3 week): 0.21% | RAC (Citrate, pH 4.0, 3 week): 89.91 | Benz Alcohol (Citrate, pH 4.0, 4 week): 2.79% | Impurity C (Citrate, pH 4.0, 4 week): 3.43 | Impurity G (Citrate, pH 4.0, 4 week): 6.57 | Thiorphan (Citrate, pH 4.0, 4 week): 0.4% | RAC (Citrate, pH 4.0, 4 week): 86.78 | Benz Alcohol (Citrate, pH 4.0, 6 week): 4.19% | Impurity C (Citrate, pH 4.0, 6 week): 4.98 | Impurity G (Citrate, pH 4.0, 6 week): 9.24 | Thiorphan (Citrate, pH 4.0, 6 week): 0.85% | RAC (Citrate, pH 4.0, 6 week): 80.7 | Benz Alcohol (Citrate, pH 4.0, 8 week): 5.54% | Impurity C (Citrate, pH 4.0, 8 week): 6.22 | Impurity G (Citrate, pH 4.0, 8 week): 11.26 | Thiorphan (Citrate, pH 4.0, 8 week): 1.42% | RAC (Citrate, pH 4.0, 8 week): 75.6 | Benz Alcohol (Citrate, pH 4.0, Initial): 0% | Impurity C (Citrate, pH 4.0, Initial): 0 | Impurity G (Citrate, pH 4.0, Initial): 0 | Thiorphan (Citrate, pH 4.0, Initial): 0% | RAC (Citrate, pH 4.0, Initial): 100 | Benz Alcohol (Citrate, pH 4.5, 1 week): 0.22% | Impurity C (Citrate, pH 4.5, 1 week): 0.18 | Impurity G (Citrate, pH 4.5, 1 week): 3.15 | Thiorphan (Citrate, pH 4.5, 1 week): 0.01% | RAC (Citrate, pH 4.5, 1 week): 96.44 | Benz Alcohol (Citrate, pH 4.5, 2 week): 0.4% | Impurity C (Citrate, pH 4.5, 2 week): 0.36 | Impurity G (Citrate, pH 4.5, 2 week): 6.04 | Thiorphan (Citrate, pH 4.5, 2 week): 0.03% | RAC (Citrate, pH 4.5, 2 week): 93.19 | Benz Alcohol (Citrate, pH 4.5, 3 week): 0.59% | Impurity C (Citrate, pH 4.5, 3 week): 0.52 | Impurity G (Citrate, pH 4.5, 3 week): 8.66 | Thiorphan (Citrate, pH 4.5, 3 week): 0.06% | RAC (Citrate, pH 4.5, 3 week): 90.2 | Benz Alcohol (Citrate, pH 4.5, 4 week): 0.79% | Impurity C (Citrate, pH 4.5, 4 week): 0.62 | Impurity G (Citrate, pH 4.5, 4 week): 11.16 | Thiorphan (Citrate, pH 4.5, 4 week): 0.1% | RAC (Citrate, pH 4.5, 4 week): 87.41 | Benz Alcohol (Citrate, pH 4.5, 6 week): 1.14% | Impurity C (Citrate, pH 4.5, 6 week): 0.9 | Impurity G (Citrate, pH 4.5, 6 week): 15.86 | Thiorphan (Citrate, pH 4.5, 6 week): 0.17% | RAC (Citrate, pH 4.5, 6 week): 82.05 | Benz Alcohol (Citrate, pH 4.5, 8 week): 1.51% | Impurity C (Citrate, pH 4.5, 8 week): 1.11 | Impurity G (Citrate, pH 4.5, 8 week): 19.95 | Thiorphan (Citrate, pH 4.5, 8 week): 0.29% | RAC (Citrate, pH 4.5, 8 week): 77.34 | Benz Alcohol (Citrate, pH 4.5, Initial): 0.02% | Impurity C (Citrate, pH 4.5, Initial): 0.01 | Impurity G (Citrate, pH 4.5, Initial): 0.19 | Thiorphan (Citrate, pH 4.5, Initial): 0.01% | RAC (Citrate, pH 4.5, Initial): 99.71
Compound: CC(=O)SCC(Cc1ccccc1)C(=O)NCC(=O)OCc1ccccc1 (racemic) [Racecadotril]
